Results as given in the supplement of paper PMC9151546.
Where a name gives a salt, the structure may show the parent alone. ± gives the standard deviation of the averaged measurements.

System: CHO-K1
Assay: benchmark concentration for 60% increase in hypodiploid frequency (BMC60); higher = less potent aneugen
Protocol: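 Benchmark concentration modelling (PROAST, Hill/exponential model families) of the 19-concentration flow-cytometric micronucleus assay in CHO-K1 cells, with and without rat liver S9. Only non-cytotoxic and adequate (relative survival >=40%) concentrations were used. BMR was a 30% increase in %MN (BMC30) or a 60% increase in %hypodiploid (BMC60) over control.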

[1] = S9 metabolic activation: without S9
[2] = S9 metabolic activation: with S9

Structure (SMILES) | benchmark concentration [1] [µM] | benchmark concentration [2] [µM]
ClC(Cl)(Cl)c1ccccc1 [Benzotrichloride] | 45 | 
NC(=O)N1c2ccccc2C=Cc2ccccc21 [Carbamazepine] | 110 | 
COC(=O)Nc1nc2ccccc2[nH]1 [Carbendazim] | < 4.5 | 32
Cc1c(C(=O)O)c(O)cc2c1C(=O)c1c(O)c([C@@H]3O[C@H](CO)[C@@H](O)[C@H](O)[C@H]3O)c(O)c(O)c1C2=O [Carminic acid] | 13 | 
Nc1cc(Cl)cc(C(=O)O)c1Cl [Chloramben] | 110 | 9.7
ClC1=C(Cl)C2(Cl)C3C(Cl)C(Cl)CC3C1(Cl)C2(Cl)Cl (centres undefined) [Chlordane] | 54 | 
CC(C)=CCCC(C)CCO (centres undefined) [Citronellol] | 72 | 
CCOC(=O)C(C)(C)Oc1ccc(Cl)cc1 [Clofibrate] | 130 | 
Oc1ccc(Cl)cc1Cc1ccccc1 [Clorophene] | 34 | 
O=c1ccc2ccccc2o1 [Coumarin] | 9.7 | 
O=c1[nH]c(=O)[nH]c(=O)[nH]1 [Cyanuric acid] | 91 | 
Nc1ccc(S(=O)(=O)c2ccc(N)cc2)cc1 [Dapsone] | 39 | 
CCCCCCCCCC(=O)O [Decanoic acid] | 30 | 
OCCNCCO [Diethanolamine] | 84 | 
COCCOCCO [Diethylene glycol monomethyl ether] | 90 | 
CC/C(=C(/CC)c1ccc(O)cc1)c1ccc(O)cc1 [Diethylstilbestrol] | 4.8 | 
CC(C)COC(=O)c1ccccc1C(=O)OCC(C)C [Diisobutyl phthalate] | 32 | 
COC(=O)CCCCC(=O)OC [Dimethyl adipate] | 110 | 
COC(=O)c1ccccc1C(=O)OC [Dimethyl phthalate] | 120 | 
ClC1=C(Cl)C2(Cl)C3C4CC(C5OC45)C3C1(Cl)C2(Cl)Cl (centres undefined) [Endrin] | < 4.5 | 
O=S(=O)(O)c1ccc(N=Nc2c(O)ccc3cc(S(=O)(=O)O)ccc23)cc1 [FD&C Yellow 6] | 13 | 
OC(Cn1cncn1)(Cn1cncn1)c1ccc(F)cc1F [Fluconazole] | 90 | 
CC(C)C(=O)Nc1ccc([N+](=O)[O-])c(C(F)(F)F)c1 [Flutamide] | 17 | 
C/C=C\c1ccc(O)c(OC)c1 [Isoeugenol] | 72 | 

Structure (SMILES) | benchmark concentration [1] [µM] | benchmark concentration [2] [µM]
CC(C)NCC(O)c1ccc(O)c(O)c1 (centres undefined) [Isoproterenol hydrochloride] | 110 | 
Cc1occc(=O)c1O [Maltol] | 100 | 
COC(=O)c1ccccc1N [Methyl 2-aminobenzoate] | 77 | 
CCc1cccc(C)c1N(C(=O)CCl)C(C)COC (centres undefined) [Metolachlor] | 180 | 
Cc1ccc(N(C)C)cc1 [N,N,4-Trimethylaniline] | 39 | 
CCN(CC)c1ccccc1 [N,N-Diethylaniline] | 77 | 
CN(C)c1ccccc1 [N,N-Dimethylaniline] | 43 | 
O=[N+]([O-])c1ccccc1 [Nitrobenzene] | 26 | 
CN(C)[C@@H]1C(=O)C(C(N)=O)=C(O)[C@@]2(O)C(=O)C3=C(O)c4c(O)cccc4[C@@](C)(O)[C@H]3[C@H](O)[C@@H]12 [Oxytetracycline hydrochloride] |  | 110
O=C(O)C(F)(F)C(F)(F)C(F)(F)C(F)(F)C(F)(F)C(F)(F)C(F)(F)F [PFOA] | 6.7 | 
Oc1c(Cl)c(Cl)c(Cl)c(Cl)c1Cl [Pentachlorophenol] | 9 | 
CCc1nc(N)nc(N)c1-c1ccc(Cl)cc1 [Pyrimethamine] | 49 | 
O=c1c(O)c(-c2ccc(O)c(O)c2)oc2cc(O)cc(O)c12 [Quercetin] | 110 | 
CN(C)C(=S)S [Sodium dimethyldithiocarbamate] | 49 | 
O=NO [Sodium nitrite] | 77 | 
c1ccc2[nH]c(-c3cscn3)nc2c1 [Thiabendazole] | 14.1 ± 7 | 
CCN(CC)C(=O)SCc1ccc(Cl)cc1 [Thiobencarb] | 113 ± 110 | 
Cc1ccc(C(C)C)c(O)c1 [Thymol] | 100 | 
O=C(Nc1ccc(Cl)cc1)Nc1ccc(Cl)c(Cl)c1 [Triclocarban] | < 4.5 | 
O=P(OCCCl)(OCCCl)OCCCl [Tris(2-chloroethyl) phosphate] | 150 | 
Cc1c(C)c2c(c(C)c1O)CCC(C)(COc1ccc(CC3SC(=O)NC3=O)cc1)O2 (centres undefined) [Troglitazone] | 14 | 
Cl[C@H]1[C@H](Cl)[C@@H](Cl)[C@H](Cl)[C@@H](Cl)[C@@H]1Cl [beta-Hexachlorocyclohexane] | 32 | 
Cc1ccccc1O [o-Cresol] | 130 | 
